Laboratory results reported in PMC9127186, “Molecular Basis Underlying Hepatobiliary and Renal Excretion of Phenolic Acids of Salvia miltiorrhiza Roots (Danshen)” (Frontiers in Pharmacology, 2022).

Tests used:
human OAT3 = molecular target: T1, human OAT3 (Homo sapiens, UniProt Q8TCC7); test: Cellular transport assay, HEK-293 cells expressing human OAT3; conditions: positive substrate 20 μM, 10 min; human OAT3
T1 sequence (Q8TCC7 1-542): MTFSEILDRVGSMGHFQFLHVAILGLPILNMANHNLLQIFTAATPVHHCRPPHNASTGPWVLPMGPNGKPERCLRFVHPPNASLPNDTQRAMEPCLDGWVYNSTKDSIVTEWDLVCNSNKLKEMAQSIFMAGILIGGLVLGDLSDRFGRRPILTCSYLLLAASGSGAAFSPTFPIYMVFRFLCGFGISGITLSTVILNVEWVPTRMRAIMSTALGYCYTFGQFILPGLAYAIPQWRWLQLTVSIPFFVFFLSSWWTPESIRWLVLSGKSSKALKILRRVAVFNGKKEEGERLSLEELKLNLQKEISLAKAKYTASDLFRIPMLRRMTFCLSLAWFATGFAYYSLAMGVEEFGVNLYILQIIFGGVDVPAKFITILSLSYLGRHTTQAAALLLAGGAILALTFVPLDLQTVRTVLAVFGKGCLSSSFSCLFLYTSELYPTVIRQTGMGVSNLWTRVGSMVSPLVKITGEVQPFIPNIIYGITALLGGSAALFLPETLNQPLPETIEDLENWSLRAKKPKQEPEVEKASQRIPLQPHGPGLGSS
Protocol: (§1) Briefly, HEK-293 cells were grown, at 37°C and 5% CO2, in Dulbecco’s modified Eagle’s medium, which was fortified with 10% fetal bovine serum, 1% minimal essential medium nonessential amino acids, and 1% antibiotic-antimycotic solution. A day before transfection, cells were seeded onto 24-well poly-D-lysine-coated plates at a density of 2 × 10^5 cells per well. After incubation at 37°C and 5% CO2 for 24 h, the expression plasmid and the empty vector were introduced separately into the HEK293 cells with Lipofectamine 2000 transfection reagent (Invitrogen, Carlsbad, CA, United States), according to the manufacturer’s protocol to yield transporter-expressing cells and mock cells, respectively.
(§2) Transport studies were performed 48 h after the transfection. […] Differential uptake between the transfected cells and mock cells was defined as net transport ratio (TransportTC/TransportMC ratio), where TransportTC and TransportMC are the transport rates of a test Danshen compound into transfected and mock cells, respectively. […] The determination was performed under linear uptake conditions by incubation for 5 min. Table 1 summarizes the final concentrations of the test Danshen compounds for different transporters. All the incubation samples were analyzed by liquid chromatography/mass spectrometry.
(§3) GraFit software (version 5.0; Erithacus Software Ltd, Surrey, United Kingdom) was used to determine the K m and V max values by nonlinear regression analysis of initial transport rates as a function of substrate concentration.

rat Oat3 = molecular target: T2, rat Oat3 (Rattus norvegicus, UniProt Q9R1U7); test: Cellular transport assay, HEK-293 cells expressing rat Oat3; conditions: positive substrate 20 μM, 10 min; rat Oat3
T2 sequence (Q9R1U7 1-536): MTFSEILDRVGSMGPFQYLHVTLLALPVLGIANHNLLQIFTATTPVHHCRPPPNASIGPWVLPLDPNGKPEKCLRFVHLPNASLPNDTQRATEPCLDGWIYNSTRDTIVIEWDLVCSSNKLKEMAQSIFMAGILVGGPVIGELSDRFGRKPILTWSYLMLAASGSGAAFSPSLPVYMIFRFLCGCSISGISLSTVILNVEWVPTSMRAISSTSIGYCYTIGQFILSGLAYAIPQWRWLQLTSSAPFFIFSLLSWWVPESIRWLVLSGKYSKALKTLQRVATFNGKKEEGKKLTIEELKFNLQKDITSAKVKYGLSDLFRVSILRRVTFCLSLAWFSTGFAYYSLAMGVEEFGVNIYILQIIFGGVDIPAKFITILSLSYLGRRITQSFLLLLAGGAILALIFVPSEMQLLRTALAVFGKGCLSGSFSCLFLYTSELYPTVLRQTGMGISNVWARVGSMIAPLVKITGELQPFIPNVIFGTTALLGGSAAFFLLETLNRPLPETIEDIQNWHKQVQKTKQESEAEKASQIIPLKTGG
Protocol: as §1, §2, §3

human OAT4 = molecular target: T3, human OAT4 (Homo sapiens, UniProt Q9NSA0); test: Cellular transport assay, HEK-293 cells expressing human OAT4; conditions: positive substrate 20 μM, 10 min; human OAT4
T3 sequence (Q9NSA0 1-550): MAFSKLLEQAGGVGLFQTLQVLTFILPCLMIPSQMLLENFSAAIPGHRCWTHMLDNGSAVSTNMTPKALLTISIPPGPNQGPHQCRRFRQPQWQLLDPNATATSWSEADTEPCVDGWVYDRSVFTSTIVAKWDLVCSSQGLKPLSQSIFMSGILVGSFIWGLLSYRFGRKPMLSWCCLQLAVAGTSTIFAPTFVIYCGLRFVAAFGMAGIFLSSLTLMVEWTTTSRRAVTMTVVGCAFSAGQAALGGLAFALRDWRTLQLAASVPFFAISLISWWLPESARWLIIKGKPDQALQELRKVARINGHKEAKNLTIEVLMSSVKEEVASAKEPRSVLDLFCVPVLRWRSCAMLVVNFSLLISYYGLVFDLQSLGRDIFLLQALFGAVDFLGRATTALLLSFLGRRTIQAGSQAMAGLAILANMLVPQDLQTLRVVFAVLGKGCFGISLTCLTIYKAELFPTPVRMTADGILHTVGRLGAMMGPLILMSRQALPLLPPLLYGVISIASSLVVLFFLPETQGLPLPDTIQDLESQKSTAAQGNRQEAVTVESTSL
Protocol: as §1, §2, §3

human OATP2B1 = molecular target: T4, human OATP2B1 (Homo sapiens, UniProt O94956); test: Cellular transport assay, HEK-293 cells expressing human OATP2B1; conditions: positive substrate 20 μM, 10 min; human OATP2B1
T4 sequence (O94956 1-709): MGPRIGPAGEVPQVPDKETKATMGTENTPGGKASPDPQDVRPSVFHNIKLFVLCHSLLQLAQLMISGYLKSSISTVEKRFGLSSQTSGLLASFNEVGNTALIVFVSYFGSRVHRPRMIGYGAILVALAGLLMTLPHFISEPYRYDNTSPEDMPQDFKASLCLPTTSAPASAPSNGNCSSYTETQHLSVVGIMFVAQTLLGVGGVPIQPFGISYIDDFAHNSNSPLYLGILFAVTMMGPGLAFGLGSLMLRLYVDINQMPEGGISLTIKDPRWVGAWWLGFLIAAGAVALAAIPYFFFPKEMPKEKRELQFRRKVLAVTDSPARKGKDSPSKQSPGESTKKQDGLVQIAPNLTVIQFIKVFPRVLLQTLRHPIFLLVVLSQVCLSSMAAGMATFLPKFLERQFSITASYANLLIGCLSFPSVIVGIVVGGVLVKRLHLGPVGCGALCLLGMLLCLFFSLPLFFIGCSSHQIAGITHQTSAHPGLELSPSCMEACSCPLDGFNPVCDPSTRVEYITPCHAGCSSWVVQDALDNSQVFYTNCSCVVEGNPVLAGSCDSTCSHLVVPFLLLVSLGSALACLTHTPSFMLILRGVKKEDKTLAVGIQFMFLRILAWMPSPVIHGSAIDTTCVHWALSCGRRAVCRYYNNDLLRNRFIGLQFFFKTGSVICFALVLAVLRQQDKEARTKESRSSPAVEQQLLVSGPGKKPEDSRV

## C[C@]12CC[C@@H]3c4ccc(OS(=O)(=O)O)cc4CC[C@H]3[C@@H]1CCC2=O [E1S, estrone-3-sulfate, reference compound]
Human OAT3
  TransportTC/TransportMC ratio, positive substrate: 10.2 ± 1.2 (E1S)
Rat Oat3
  TransportTC/TransportMC ratio, positive substrate: 21.4 ± 6.8 (E1S)
Human OAT4
  TransportTC/TransportMC ratio, positive substrate: 7.69 ± 1.74 (E1S)
Human OATP2B1
  TransportTC/TransportMC ratio, positive substrate: 41.1 ± 1.5 (E1S)
